According to ChEMBL document CHEMBL1201862, “PubChem BioAssay data set” (2004):
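Cultured in 96-well plates, cells were exposed to test compound for 48 hours across five concentrations. At the GI50, growth is halved.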 Calls of active or inactive are those of the source. No stated cut-off is given here; in the data, active = GI50 up to about 1.1 µM and inactive = higher.

Key:
Test in all cases: NCI anticancer screen, dose series, 48 h
Hs-578T = system: Hs-578T
U-251 = system: U-251
COLO 205 = system: COLO 205
OVCAR-5 = system: OVCAR-5
KM12 = system: KM12
MCF7 = system: MCF7
EKVX = system: EKVX
SF-268 = system: SF-268
CCRF-CEM = system: CCRF-CEM
OVCAR-3 = system: OVCAR-3
NCI-H522 = system: NCI-H522
NCI/ADR-RES = system: NCI/ADR-RES
PC-3 = system: PC-3
SF-295 = system: SF-295
SNB-19 = system: SNB-19
MDA-N = system: MDA-N
SNB-75 = system: SNB-75
MDA-MB-435 = system: MDA-MB-435

Measured: GI50

O=C(O)c1nnsc1-c1csnn1
inactive: Hs-578T > 100 µM | U-251 > 100 µM | COLO 205 > 100 µM | OVCAR-5 > 100 µM | KM12 > 100 µM | MCF7 > 100 µM | EKVX > 100 µM | SF-268 > 100 µM | CCRF-CEM > 100 µM | OVCAR-3 > 100 µM | NCI-H522 > 100 µM | NCI/ADR-RES > 100 µM | PC-3 > 100 µM | SF-295 > 100 µM | SNB-19 > 100 µM | MDA-N > 100 µM | SNB-75 > 100 µM | MDA-MB-435 > 100 µM

CC1(C)[C@H]2CC[C@@]13C(=O)N1C(=O)O[C@@H]([C@H]1Cl)C(Cl)(COCc1ccccc1)C(=O)OCCO[C@H]3C2 (some centres not stated)
inactive: Hs-578T 88.1 µM | U-251 39.4 µM | COLO 205 18 µM | OVCAR-5 > 100 µM | KM12 63.7 µM | MCF7 44.2 µM | EKVX 95.9 µM | SF-268 > 100 µM | CCRF-CEM 38.5 µM | OVCAR-3 54.2 µM | NCI-H522 34.8 µM | NCI/ADR-RES 59.4 µM | PC-3 38.2 µM | SF-295 51.1 µM | SNB-19 > 100 µM | MDA-N 64.9 µM | SNB-75 > 100 µM | MDA-MB-435 42.8 µM

Cc1ccc(S(=O)(=O)NNC(=O)Nc2ccc([N+](=O)[O-])cc2)cc1
inactive: Hs-578T 34.6 µM | U-251 31 µM | COLO 205 42.3 µM | OVCAR-5 > 100 µM | KM12 23.8 µM | MCF7 35.6 µM | EKVX > 100 µM | SF-268 67.6 µM | CCRF-CEM 45.3 µM | OVCAR-3 19.6 µM | NCI-H522 26.5 µM | NCI/ADR-RES 27.4 µM | PC-3 26.1 µM | SF-295 36.6 µM | SNB-19 69.5 µM | MDA-N > 100 µM | SNB-75 72.9 µM | MDA-MB-435 55 µM

CCOC(=O)c1sc2ncnc(N)c2c1C
inactive: Hs-578T 44.1 µM | U-251 > 100 µM | COLO 205 19.6 µM | OVCAR-5 36.3 µM | KM12 47.1 µM | MCF7 51.6 µM | EKVX 25.9 µM | SF-268 68.5 µM | CCRF-CEM 62.1 µM | OVCAR-3 > 100 µM | NCI-H522 59.3 µM | NCI/ADR-RES > 100 µM | PC-3 68.5 µM | SF-295 79.4 µM | SNB-19 63.7 µM | MDA-N 41.8 µM | SNB-75 35.1 µM | MDA-MB-435 36 µM
